The assay deals with b-Raf(V600E) (Homo sapiens, UniProt P15056, V600E). Description: Raf/Mek Amplified Luminescence Proximity Homogeneous Assay (Alpha Screen). The settings on record: b-Raf(V600E) approximately 4 pM; biotinylated Mek, kinase dead approximately 10 nM; ATP 10 μM; pre-incubation 60 minutes; reaction 3 hours at room temperature; read-out: mut-bRaf IC50. It is filed as biochemical. On the procedure:
Raf/Mek Amplified Luminescence Proximity Homogeneous Assay
Assay buffer: 50 mM Tris, pH 7.5, 15 mM MgCl2, 0.01% Bovine Serum Albumin (BSA), 1 mM dithiothreitol (DTT) Stop buffer: 60 mM ethylenediaminetetraacetic acid (EDTA), 0.01% Tween® 20 Bead buffer: 50 mM Tris, pH 7.5, 0.01% Tween® 20 […]
biotinylated Mek, kinase dead
Alpha Screen detection kit (available from PerkinElmer™, #6760617R)
Anti phospho-MEK1/2 (available from Cell Signaling Technology, Inc. #9121) 384 well assay plates (White Greiner® plates, #781207) […]
b-Raf(V600E) approximately 4 pM […]
biotinylated Mek, Kinase dead approximately 10 nM
Pre-incubation time with compounds 60 minutes at room temperature
Reaction time 1 or 3 hours at room temperature
Raf and biotinylated Mek, kinase dead, were combined at 2× final concentrations in assay buffer (50 mM Tris, pH 7.5, 15 mM MgCl2, 0.01% BSA and 1 mM DTT) and dispensed 10 μl per well in assay plates (Greiner white 384 well assay plates #781207) containing 0.5 μl of 40× of a raf kinase inhibitor test compound diluted in 100% DMSO. The plate was incubated for 60 minutes at room temperature.
The Raf kinase activity reaction was started by the addition of 10 μL per well of 2×ATP diluted in assay buffer. After 3 hours (bRaf(V600E)) or 1 hour (c-Raf), the reactions were stopped with the addition of 10 μL of stop reagent (60 mM EDTA). Phosphorylated product was measured using a rabbit anti-p-MEK (Cell Signaling, #9121) antibody and the Alpha Screen IgG (ProteinA) detection Kit (PerkinElmer #6760617R), by the addition of 30 μL to the well of a mixture of the antibody (1:2000 dilution) and detection beads (1:2000 dilution of both beads) in bead buffer (50 mM Tris, pH 7.5, 0.01% Tween20). The additions were carried out under dark conditions to protect the detection beads from light. A lid was placed on top of the plate and incubated for 1 hour at room temperature, then the luminescence was read on a PerkinElmer Envision instrument. The concentration of each compound for 50% inhibition (IC50) was calculated by non-linear regression using XL Fit data analysis software.
Chain of b-Raf(V600E) (P15056 whole entry V600E): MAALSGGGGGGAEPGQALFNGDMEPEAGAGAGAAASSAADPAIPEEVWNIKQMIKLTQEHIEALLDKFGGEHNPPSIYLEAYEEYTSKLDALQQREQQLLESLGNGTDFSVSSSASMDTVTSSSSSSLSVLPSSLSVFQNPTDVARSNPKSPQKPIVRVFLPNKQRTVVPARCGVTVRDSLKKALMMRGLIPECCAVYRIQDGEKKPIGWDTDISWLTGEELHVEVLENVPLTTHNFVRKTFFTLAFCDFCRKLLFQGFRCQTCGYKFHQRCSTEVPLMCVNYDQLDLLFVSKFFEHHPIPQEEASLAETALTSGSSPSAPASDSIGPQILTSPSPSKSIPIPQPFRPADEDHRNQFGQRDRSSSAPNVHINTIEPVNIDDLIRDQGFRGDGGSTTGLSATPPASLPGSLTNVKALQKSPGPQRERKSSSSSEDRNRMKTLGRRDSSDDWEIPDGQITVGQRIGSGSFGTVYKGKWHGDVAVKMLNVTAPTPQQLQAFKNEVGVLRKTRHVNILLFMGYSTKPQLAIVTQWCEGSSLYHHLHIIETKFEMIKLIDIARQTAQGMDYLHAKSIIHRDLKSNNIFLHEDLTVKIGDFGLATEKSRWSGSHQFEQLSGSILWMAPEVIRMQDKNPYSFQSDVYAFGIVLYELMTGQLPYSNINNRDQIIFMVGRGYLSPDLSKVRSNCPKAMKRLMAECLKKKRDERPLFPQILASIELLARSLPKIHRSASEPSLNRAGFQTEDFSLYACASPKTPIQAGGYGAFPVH
In the case of `CCCS(=O)(=O)Nc1cc(F)cc(-c2nc(C(C)(C)C)sc2-c2ccnc(N)n2)c1Cl` [Example 9], the IC50 (usually the concentration needed to halve the response being measured) stood at 0.14 nM.

With `CCCS(=O)(=O)Nc1cc(F)cc(-c2nc(C(C)(C)C)sc2-c2ccnc(NC)n2)c1Cl` [Example 8], the IC50 is 0.14 nM.

Turning to `CCCS(=O)(=O)Nc1cccc(-c2nc(C3CC3)oc2-c2ccnc(N)n2)c1F` [Example 39], the IC50 came to 2.1 nM.

On to `CCCS(=O)(=O)Nc1cc(Cl)cc(-c2nc(C(C)(C)C)sc2-c2ccnc(NC[C@H](C)NC(=O)OC)n2)c1Cl` [Example 48], for which the IC50 came to 0.7 nM.

For the compound `COC(=O)N[C@@H](C)CNc1nccc(-c2oc(C3CC3)nc2-c2cc(Cl)cc(NS(C)(=O)=O)c2Cl)n1` [Example 60], the concentration for half-maximal inhibition (IC50) is 0.46 nM.

`CNc1nccc(-c2sc(C(C)(C)C)nc2-c2cc(Cl)cc(NS(C)(=O)=O)c2F)n1` [Example 61]: the IC50 amounted to 0.65 nM.

In the case of `CCCS(=O)(=O)Nc1cc(F)cc(-c2nc(C3CC3)sc2-c2ccnc(NC)n2)c1Cl` [Example 14], the IC50 worked out at 0.091 nM.

In the case of `CS(=O)(=O)Nc1cc(Cl)cc(-c2nc(C3CC3)sc2-c2ccnc(N)n2)c1F` [Example 21], the IC50 amounted to 5.8 nM.

As for `CCCS(=O)(=O)Nc1cccc(-c2nc(C3CC3)oc2-c2ccnc(N)n2)c1Cl` [Example 30], the IC50 was 1.2 nM.

In the case of `CCCS(=O)(=O)Nc1cc(Cl)cc(-c2nc(C3CC3)sc2-c2ccnc(NC[C@H](C)NC(=O)OC)n2)c1F` [Example 65], the IC50 came out at 0.09 nM.

As to `CS(=O)(=O)Nc1cc(Cl)cc(-c2nc(C3CC3)sc2-c2ccnc(N)n2)c1Cl` [Example 53], the IC50 was found to be 0.45 nM.

With `CS(=O)(=O)Nc1cccc(-c2nc(C3CC3)oc2-c2ccnc(NCCC#N)n2)c1Cl` [Example 46], the IC50 amounted to 0.95 nM.

With `CCCS(=O)(=O)Nc1cccc(-c2nc(C3CC3)sc2-c2ccnc(NC)n2)c1F` [Example 37], the concentration for half-maximal inhibition (IC50) came to 5 nM.

Consider `CS(=O)(=O)Nc1cc(F)cc(-c2nc(C3CC3)oc2-c2ccnc(N)n2)c1Cl` [Example 17], for which the IC50 was 2.7 nM.

Take `CCCS(=O)(=O)Nc1cc(Cl)cc(-c2nc(C3CC3)sc2-c2ccnc(NC)n2)c1Cl` [Example 51]: the IC50 was 0.08 nM.

As for `CCCS(=O)(=O)Nc1cccc(-c2nc(C(C)(C)C)sc2-c2ccnc(NC[C@H](C)NC(=O)OC)n2)c1Cl` [Example 7, (S)-methyl 1-(4-(2-tert-butyl-4-(2-chloro-3-(propylsulfonamido)phenyl)thiazol-5-yl)pyrimidin-2-ylamino)propan-2-ylcarbamate], the IC50 was found to be 0.22 nM.

Consider `CCCNc1nccc(-c2oc(C3CC3)nc2-c2cccc(NS(C)(=O)=O)c2Cl)n1` [Example 43], for which the IC50 was 62 nM.

Turning to `CS(=O)(=O)Nc1cccc(-c2nc(C3CC3)sc2-c2ccnc(N)n2)c1Cl` [Example 32], the IC50 was 44 nM.

`CCCS(=O)(=O)Nc1cc(Cl)cc(-c2nc(C(C)(C)C)sc2-c2ccnc(N)n2)c1Cl` [Example 47]: the IC50 is 0.13 nM.

Turning to `CNc1nccc(-c2sc(C(C)(C)C)nc2-c2cc(F)cc(NS(C)(=O)=O)c2Cl)n1` [Example 11], the IC50 came out at 6 nM.

Consider `CNc1nccc(-c2oc(C3CC3)nc2-c2cc(Cl)cc(NS(C)(=O)=O)c2F)n1` [Example 23], for which the IC50 came to 18 nM.

Regarding `COCC(=O)N[C@@H](C)CNc1nccc(-c2oc(-c3ccc(F)cc3)nc2-c2cc(C)cc(NS(C)(=O)=O)c2Cl)n1` [Example 42], the 50% inhibitory concentration (IC50) stood at 3.1 nM.

Regarding `CS(=O)(=O)Nc1cc(Cl)cc(-c2nc(C3CC3)oc2-c2ccnc(N)n2)c1Cl` [Example 58], the IC50 was found to be 0.35 nM.

Turning to `COC(=O)N[C@@H](C)CNc1nccc(-c2sc(C(C)(C)C)nc2-c2cc(Cl)cc(NS(C)(=O)=O)c2Cl)n1` [Example 49], the IC50 is 0.4 nM.

Turning to `CCCS(=O)(=O)Nc1cc(Cl)cc(-c2nc(C3CC3)sc2-c2ccnc(NC[C@H](C)NC(=O)OC)n2)c1Cl` [Example 52], the IC50 came to 0.24 nM.

On to `CCCS(=O)(=O)Nc1cc(Cl)cc(-c2nc(C3CC3)sc2-c2ccnc(N)n2)c1Cl` [Example 50], for which the IC50 was found to be 0.056 nM.

For the compound `COC(=O)N[C@@H](C)CNc1nccc(-c2oc(C3CC3)nc2-c2cccc(NS(C)(=O)=O)c2Cl)n1` [Example 44], the half-inhibitory concentration (IC50) was found to be 1.3 nM.

On to `CNc1nccc(-c2sc(C3CC3)nc2-c2cc(Cl)cc(NS(C)(=O)=O)c2F)n1` [Example 20], for which the IC50 is 3 nM.

Take `CNc1nccc(-c2oc(C3CC3)nc2-c2cc(F)cc(NS(C)(=O)=O)c2Cl)n1` [Example 18]: the IC50 amounted to 18 nM.

As for `CCCS(=O)(=O)Nc1cc(F)cc(-c2nc(C(C)(C)C)sc2-c2ccncn2)c1Cl` [Example 2, N-(3-(2-tert-butyl-5-(pyrimidin-4-yl)thiazol-4-yl)-2-chloro-5-fluorophenyl)propane-1-sulfonamide], the IC50 amounted to 0.44 nM.

As to `COC(=O)N[C@@H](C)CNc1nccc(-c2sc(C(C)(C)C)nc2-c2cccc(NS(C)(=O)=O)c2Cl)n1` [Example 25], the IC50 was determined as 0.32 nM.

With `CCCS(=O)(=O)Nc1cc(Cl)cc(-c2nc(C3CC3)oc2-c2ccnc(NC[C@H](C)NC(=O)OC)n2)c1F` [Example 64], the IC50 worked out at 0.28 nM.

Consider `CC(C)(C)c1nc(-c2cc(F)cc(NS(C)(=O)=O)c2Cl)c(-c2ccnc(N)n2)s1` [Example 12], for which the IC50 came to 9 nM.

Consider `CCCS(=O)(=O)Nc1cc(F)cc(-c2nc(C3CC3)sc2-c2ccnc(NC[C@H](C)NC(=O)OC)n2)c1Cl` [Example 15], for which the half-inhibitory concentration (IC50) was found to be 0.077 nM.

In the case of `CS(=O)(=O)Nc1cc(Cl)cc(-c2nc(C3CC3)oc2-c2ccnc(N)n2)c1F` [Example 22], the IC50 is 3.3 nM.

For `CS(=O)(=O)Nc1cc(F)cc(-c2nc(C3CC3)sc2-c2ccnc(N)n2)c1Cl` [Example 16], the IC50 stood at 15 nM.

Regarding `COC(=O)N[C@@H](C)CNc1nccc(-c2sc(C(C)(C)C)nc2-c2cc(F)cc(NS(C)(=O)=O)c2Cl)n1` [Example 1, (S)-methyl 1-(4-(2-tert-butyl-4-(2-chloro-5-fluoro-3-(methylsulfonamido)phenyl)thiazol-5-yl)pyrimidin-2-ylamino)propan-2-ylcarbamate], the IC50 amounted to 0.25 nM.

For the compound `CCCS(=O)(=O)Nc1cc(Cl)cc(-c2nc(C3CC3)oc2-c2ccnc(N)n2)c1F` [Example 63], the IC50 was found to be 0.044 nM.

For the compound `CNc1nccc(-c2sc(C3CC3)nc2-c2cc(Cl)cc(NS(C)(=O)=O)c2Cl)n1` [Example 54], the IC50 is 0.46 nM.

With `CCCS(=O)(=O)Nc1cccc(-c2nc(C3CC3)sc2-c2ccnc(N)n2)c1F` [Example 41], the IC50 was found to be 11 nM.

Turning to `COC(=O)N[C@@H](C)CNc1nccc(-c2sc(C3CC3)nc2-c2cccc(NS(C)(=O)=O)c2Cl)n1` [Example 33], the IC50 is 0.42 nM.

As to `CCCS(=O)(=O)Nc1cccc(-c2nc(C(C)(C)C)sc2-c2ccnc(N)n2)c1Cl` [Example 26], the IC50 is 0.65 nM.

With `CCCS(=O)(=O)Nc1cc(Cl)cc(-c2nc(C3CC3)oc2-c2ccnc(NC)n2)c1F` [Example 62], the IC50 was found to be 0.28 nM.

As to `COC(=O)N[C@@H](C)CNc1nccc(-c2oc(C3CC3)nc2-c2cc(F)cc(NS(C)(=O)=O)c2Cl)n1` [Example 19], the IC50 was found to be 1.5 nM.

These data come from patent publication US20130096149A1, “HETEROARYL COMPOUNDS AND COMPOSITIONS AS PROTEIN KINASE INHIBITORS” (NOVARTIS AG, priority 2010, published 2013).
